Patent US20240376084A1, “INHIBITORS OF ALPHA-HEMOLYSIN OF STAPHYLOCOCCUS AUREUS” (Helmholtz-Zentrum Fur Infektionsforschung GmbH, priority 2021, published 2024)

Tests used:
[1] = molecular target: S. aureus Alpha hemolysin (Staphylococcus aureus, UniProt P09616); experiment: cell-based; conditions: A549-LDH Assay activity
[2] = molecular target: hemolysin alpha from Staphylococcus aureus (Staphylococcus aureus, UniProt P09616); experiment: cell-based
hemolysin alpha from Staphylococcus aureus, sequence (P09616 27-319 limits assumed): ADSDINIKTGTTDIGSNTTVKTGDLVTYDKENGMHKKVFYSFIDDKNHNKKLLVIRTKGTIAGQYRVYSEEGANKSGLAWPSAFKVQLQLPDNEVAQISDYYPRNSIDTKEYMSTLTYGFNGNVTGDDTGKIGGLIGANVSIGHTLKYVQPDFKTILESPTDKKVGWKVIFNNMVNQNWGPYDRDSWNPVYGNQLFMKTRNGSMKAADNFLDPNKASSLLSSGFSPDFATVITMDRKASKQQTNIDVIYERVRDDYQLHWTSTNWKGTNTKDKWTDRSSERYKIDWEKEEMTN

S. aureus Alpha hemolysin, sequence (P09616 27-319 limits assumed): as above

Structure (SMILES): Cc1cc2[nH]c(=O)c(=O)[nH]c2cc1S(=O)(=O)Nc1cc(C)c(-c2ccco2)c(C)c1 [Compound 16, N-(4-(furan-2-yl)-3,5-dimethylphenyl)-7-methyl-2,3-dioxo-1,2,3,4-tetrahydroquinoxaline-6-sulfonamide]
- EC50 [1]: < 30 nM
- IC50 [2]: < 30 nM

Structure (SMILES): O=c1[nH]c2cc(Cl)c(S(=O)(=O)Nc3ccc(C4CC4)cc3)cc2[nH]c1=O [Compound 85, 7-chloro-N-(4-cyclopropylphenyl)-2,3-dioxo-1,2,3,4-tetrahydroquinoxaline-6-sulfonamide]
- EC50 [1]: 30 to 100 nM
- IC50 [2]: 100 to 1000 nM

Structure (SMILES): COc1ccc(-c2ccc(NS(=O)(=O)c3cc4[nH]c(=O)c(=O)[nH]c4cc3C)cc2Cl)cc1C#N [Compound 289, N-[3-chloro-4-(3-cyano-4-methoxy-phenyl)phenyl]-7-methyl-2,3-dioxo-1,4-dihydroquinoxaline-6-sulfonamide]
- EC50 [1]: 100 to 1000 nM
- EC50 [2]: 30 to 100 nM

Structure (SMILES): Cc1cc2[nH]c(=O)c(=O)[nH]c2cc1S(=O)(=O)Nc1ccc(-n2ccnc2)cc1 [Compound 292, N-(4-imidazol-1-ylphenyl)-7-methyl-2,3-dioxo-1,4-dihydroquinoxaline-6-sulfonamide]
- EC50 [1]: 1000 to 6000 nM
- EC50 [2]: 1000 to 3500 nM

Structure (SMILES): Cc1cc2[nH]c(=O)c(=O)[nH]c2cc1S(=O)(=O)Nc1ccc(-c2cccnc2)c(Cl)c1 [Compound 29, N-(3-chloro-4-(pyridin-3-yl)phenyl)-7-methyl-2,3-dioxo-1,2,3,4-tetrahydroquinoxaline-6-sulfonamide]
- EC50 [1]: 100 to 1000 nM
- IC50 [2]: < 30 nM

Structure (SMILES): Cc1cc2[nH]c(=O)c(=O)[nH]c2cc1S(=O)(=O)Nc1ccc(-c2ccc3nccn3c2)c(Cl)c1 [Compound 328, N-(3-chloro-4-imidazo[1,2-a]pyridin-6-yl-phenyl)-7-methyl-2,3-dioxo-1,4-dihydroquinoxaline-6-sulfonamide]
- EC50 [1]: 100 to 1000 nM
- EC50 [2]: 100 to 1000 nM

Structure (SMILES): CN(C)c1cccc(-c2ccc(NS(=O)(=O)c3cc4[nH]c(=O)c(=O)[nH]c4cc3F)cc2Cl)c1 [Compound 34, N-(2-chloro-3′-(dimethylamino)-[1,1′-biphenyl]-4-yl)-7-fluoro-2,3-dioxo-1,2,3,4-tetrahydroquinoxaline-6-sulfonamide]
- EC50 [1]: 100 to 1000 nM
- IC50 [2]: < 30 nM

Structure (SMILES): COc1cc2[nH]c(=O)c(=O)[nH]c2cc1S(=O)(=O)Nc1ccc(Br)cc1 [Compound 383, N-(4-bromophenyl)-7-methoxy-2,3-dioxo-1,4-dihydroquinoxaline-6-sulfonamide]
- EC50 [1]: 100 to 1000 nM
- EC50 [2]: 1000 to 3500 nM

Structure (SMILES): C#Cc1cc(NS(=O)(=O)c2cc3[nH]c(=O)c(=O)[nH]c3cc2C)ccc1-c1ccc2oc(C)nc2c1 [Compound 373, N-[3-ethynyl-4-(2-methyl-1,3-benzoxazol-5-yl)phenyl]-7-methyl-2,3-dioxo-1,4-dihydroquinoxaline-6-sulfonamide]
- EC50 [1]: < 30 nM
- EC50 [2]: < 30 nM

Structure (SMILES): Cc1cc2[nH]c(=O)c(=O)[nH]c2cc1S(=O)(=O)Nc1ccc(-c2ccc3nn[nH]c3c2)c(Cl)c1 [Compound 256, N-[4-(1H-benzotriazol-5-yl)-3-chloro-phenyl]-7-methyl-2,3-dioxo-1,4-dihydroquinoxaline-6-sulfonamide]
- EC50 [1]: 30 to 100 nM
- EC50 [2]: < 30 nM

Structure (SMILES): Cc1cc2[nH]c(=O)c(=O)[nH]c2cc1S(=O)(=O)Nc1cnc(-n2nccn2)c(Cl)c1 [Compound 385, N-[5-chloro-6-(triazol-2-yl)-3-pyridyl]-7-methyl-2,3-dioxo-1,4-dihydroquinoxaline-6-sulfonamide]
- EC50 [1]: 100 to 1000 nM
- EC50 [2]: 1000 to 3500 nM

Structure (SMILES): Cc1cc2[nH]c(=O)c(=O)[nH]c2cc1S(=O)(=O)Nc1cc(C)c(-c2ccoc2)c(C)c1 [Compound 107, N-(4-(furan-3-yl)-3,5-dimethylphenyl)-7-methyl-2,3-dioxo-1,2,3,4-tetrahydroquinoxaline-6-sulfonamide]
- EC50 [1]: 30 to 100 nM
- IC50 [2]: 100 to 1000 nM

Structure (SMILES): Cc1cc2[nH]c(=O)c(=O)[nH]c2cc1S(=O)(=O)Nc1ccc(-c2ccc3cc[nH]c3c2)c(Br)c1 [Compound 374, N-[3-bromo-4-(1H-indol-6-yl)phenyl]-7-methyl-2,3-dioxo-1,4-dihydroquinoxaline-6-sulfonamide]
- EC50 [1]: < 30 nM
- EC50 [2]: < 30 nM

Structure (SMILES): Cc1cc2[nH]c(=O)c(=O)[nH]c2cc1S(=O)(=O)Nc1ccc(-c2cccc(N3CCN(C)CC3)c2)c(Cl)c1 [Compound 330, N-[3-chloro-4-[3-(4-methylpiperazin-1-yl)phenyl]phenyl]-7-methyl-2,3-dioxo-1,4-dihydroquinoxaline-6-sulfonamide]
- EC50 [1]: 100 to 1000 nM
- EC50 [2]: 100 to 1000 nM

Structure (SMILES): Cc1cc2[nH]c(=O)c(=O)[nH]c2cc1S(=O)(=O)Nc1ccc(-c2ccccc2C(=O)O)cc1 [Compound 182, 4′-((7-methyl-2,3-dioxo-1,2,3,4-tetrahydroquinoxaline)-6-sulfonamido)-[1,1′-biphenyl]-2-carboxylic acid]
- EC50 [1]: 1000 to 6000 nM
- IC50 [2]: 1000 to 3500 nM

Structure (SMILES): Cc1cc(NS(=O)(=O)c2cc3[nH]c(=O)c(=O)[nH]c3cc2C)ccc1C(F)(F)F [Compound 91, 7-methyl-N-(3-methyl-4-(trifluoromethyl)phenyl)-2,3-dioxo-1,2,3,4-tetrahydroquinoxaline-6-sulfonamide]
- EC50 [1]: 100 to 1000 nM
- IC50 [2]: 100 to 1000 nM

Structure (SMILES): Cc1cc2[nH]c(=O)c(=O)[nH]c2cc1S(=O)(=O)Nc1ccc(-c2ccncc2)cc1 [Compound 127, 7-methyl-2,3-dioxo-N-(4-(pyridin-4-yl)phenyl)-1,2,3,4-tetrahydroquinoxaline-6-sulfonamide]
- EC50 [1]: 100 to 1000 nM
- IC50 [2]: 100 to 1000 nM

Structure (SMILES): O=c1[nH]c2cc(F)c(S(=O)(=O)Nc3ccc(-c4ccccc4)cc3)cc2[nH]c1=O [Compound 64, N-([1,1′-biphenyl]-4-yl)-7-fluoro-2,3-dioxo-1,2,3,4-tetrahydroquinoxaline-6-sulfonamide]
- EC50 [1]: 100 to 1000 nM
- IC50 [2]: 30 to 100 nM

Structure (SMILES): C#Cc1cc(NS(=O)(=O)c2cc3[nH]c(=O)c(=O)[nH]c3cc2C)ccc1-c1ccc(F)cc1 [Compound 378, N-[3-ethynyl-4-(4-fluorophenyl)phenyl]-7-methyl-2,3-dioxo-1,4-dihydroquinoxaline-6-sulfonamide]
- EC50 [1]: < 30 nM
- EC50 [2]: < 30 nM

Structure (SMILES): Cc1cc2[nH]c(=O)c(=O)[nH]c2cc1S(=O)(=O)Nc1ccc(-c2ccc3c(c2)ncn3C)c(Cl)c1 [Compound 283, N-[3-chloro-4-(1-methylbenzimidazol-5-yl)phenyl]-7-methyl-2,3-dioxo-1,4-dihydroquinoxaline-6-sulfonamide]
- EC50 [1]: 100 to 1000 nM
- EC50 [2]: 100 to 1000 nM

Structure (SMILES): Cc1cc2[nH]c(=O)c(=O)[nH]c2cc1S(=O)(=O)Nc1ccc(-c2ccc(F)cc2)c(N(C)C)c1 [Compound 255, N-[3-(dimethylamino)-4-(4-fluorophenyl)phenyl]-7-methyl-2,3-dioxo-1,4-dihydroquinoxaline-6-sulfonamide]
- EC50 [1]: 100 to 1000 nM
- EC50 [2]: 100 to 1000 nM

Structure (SMILES): Cc1cc2[nH]c(=O)c(=O)[nH]c2cc1S(=O)(=O)Nc1ccc(-c2ccc3[nH]ccc3c2)c(Cl)c1 [Compound 270, N-[3-chloro-4-(1H-indol-5-yl)phenyl]-7-methyl-2,3-dioxo-1,4-dihydroquinoxaline-6-sulfonamide]
- EC50 [1]: 30 to 100 nM
- EC50 [2]: 100 to 1000 nM

Structure (SMILES): Cc1nc2cc(-c3ncc(NS(=O)(=O)c4cc5[nH]c(=O)c(=O)[nH]c5cc4C)cc3Cl)ccc2o1 [Compound 375, N-[5-chloro-6-(2-methyl-1,3-benzoxazol-5-yl)-3-pyridyl]-7-methyl-2,3-dioxo-1,4-dihydroquinoxaline-6-sulfonamide]
- EC50 [1]: 30 to 100 nM
- EC50 [2]: 30 to 100 nM

Structure (SMILES): COc1ccccc1-c1ccc(NS(=O)(=O)c2cc3[nH]c(=O)c(=O)[nH]c3cc2C)cc1Cl [Compound 72, N-(2-chloro-2′-methoxy-[1,1′-biphenyl]-4-yl)-7-methyl-2,3-dioxo-1,2,3,4-tetrahydroquinoxaline-6-sulfonamide]
- EC50 [1]: 100 to 1000 nM
- IC50 [2]: 100 to 1000 nM

Structure (SMILES): Cc1ccc(-c2c(C)cc(NS(=O)(=O)c3cc4[nH]c(=O)c(=O)[nH]c4cc3C)cc2C)o1 [Compound 84, N-(3,5-dimethyl-4-(5-methylfuran-2-yl)phenyl)-7-methyl-2,3-dioxo-1,2,3,4-tetrahydroquinoxaline-6-sulfonamide]
- EC50 [1]: 100 to 1000 nM
- IC50 [2]: 100 to 1000 nM

Structure (SMILES): Cc1cc2[nH]c(=O)c(=O)[nH]c2cc1S(=O)(=O)Nc1ccc(C(C)(C)C)cc1 [Compound 83, N-(4-(tert-butyl)phenyl)-7-methyl-2,3-dioxo-1,2,3,4-tetrahydroquinoxaline-6-sulfonamide]
- EC50 [1]: 30 to 100 nM
- IC50 [2]: 100 to 1000 nM

Structure (SMILES): Cc1cc2[nH]c(=O)c(=O)[nH]c2cc1S(=O)(=O)Nc1ccc(-c2ccc(C#N)cc2)c(Br)c1 [Compound 298, N-[3-bromo-4-(4-cyanophenyl)phenyl]-7-methyl-2,3-dioxo-1,4-dihydroquinoxaline-6-sulfonamide]
- EC50 [1]: 30 to 100 nM
- EC50 [2]: < 30 nM

Structure (SMILES): CCc1cc2[nH]c(=O)c(=O)[nH]c2cc1S(=O)(=O)Nc1ccc(Br)c(Cl)c1 [Compound 149, N-(4-bromo-3-chlorophenyl)-7-ethyl-2,3-dioxo-1,2,3,4-tetrahydroquinoxaline-6-sulfonamide]
- EC50 [1]: 100 to 1000 nM
- IC50 [2]: 100 to 1000 nM

Structure (SMILES): [2H]C([2H])([2H])Oc1ccc(-c2ccc(NS(=O)(=O)c3cc4[nH]c(=O)c(=O)[nH]c4cc3C)cc2Cl)cc1 [Compound 267, N-[3-chloro-4-[4-(trideuteriomethoxy)phenyl]phenyl]-7-methyl-2,3-dioxo-1,4-dihydroquinoxaline-6-sulfonamide]
- EC50 [1]: 30 to 100 nM
- EC50 [2]: < 30 nM

Structure (SMILES): Cc1cc2[nH]c(=O)c(=O)[nH]c2cc1S(=O)(=O)Nc1ccc(-c2ccncc2)c(Cl)c1 [Compound 37, N-(3-chloro-4-(pyridin-4-yl)phenyl)-7-methyl-2,3-dioxo-1,2,3,4-tetrahydroquinoxaline-6-sulfonamide]
- EC50 [1]: 30 to 100 nM
- IC50 [2]: < 30 nM

Structure (SMILES): Cc1cc2[nH]c(=O)c(=O)[nH]c2cc1S(=O)(=O)Nc1ccc(-c2ccc3c(c2)NCCO3)c(Cl)c1 [Compound 353, N-[3-chloro-4-(3,4-dihydro-2H-1,4-benzoxazin-6-yl)phenyl]-7-methyl-2,3-dioxo-1,4-dihydroquinoxaline-6-sulfonamide]
- EC50 [1]: 100 to 1000 nM
- EC50 [2]: 30 to 100 nM
